Data from patent publication US20210196731A1, “COMPOSITIONS AND METHODS FOR TREATING OCULAR INFLAMMATION AND OCULAR SCARRING” (priority 2018, published 2021).

Legend:
[1] = tested on: HTCFs; experiment: Lipid Mediator Secretion Assay I (ASA with and without melittin, LC-MS/MS); format: cell-based, human; conditions: ASA 200 μg/ml
Method: The aim of this experiment was to assess the relative secretion of COX2 vs. acetylated-COX2 products from HTCFs after an inflammatory stimulus followed by exposure to ASA with and without an extremely potent PLA2 agonist—melittin. To this end, multiple primary HTCF cell lines were cultured in DMEM w/10% FBS in 6-well culture plates, incubated at 37 C and 5% CO2, until 90% confluent. The culture media was removed, wells washed with PBS, and then fresh DMEM w/0% FBS was added. After 24 hrs of serum starvation, fresh DMEM w/0% FBS was added, this time containing a physiologically relevant inflammation/wound healing induction mixture (1 ng/ml each of: IL-1b, TNFa, IFNγ, TGFb). After 12 hrs incubation, the induction media was removed, the wells were washed with PBS and fresh DMEM w/0% FBS was added containing one of three experimental treatments for an incubation period of 24 hrs: 1) vehicle control (DMEM w/0% FBS), and 2) ASA 200 (DMEM w/0% FBS and 200 μg/ml ASA), and 3) ASA/Mel. (DMEM w/0% FBS, 200 μg/ml ASA and 10 μg/ml of melittin, a potent PLA2 agonist). At 6, 12 and 24 hrs after addition of the experimental treatments, 250 ul of supernatant was removed from each well, replaced with 250 ul of fresh DMEM w/0% FBS, and stored at −80° C. for subsequent LC-MS/MS analysis. After 24 hrs, the wells were washed with ice cold PBS three times and total cellular protein from the HTCF monolayer was collected for quantification and subsequent western blot analyses. The absolute quantity of protein within each culture well's HTCF monolayer was used as a means to standardize the relative secretion of lipid mediators by HTCFs into the culture well's supernatant.
Relative quantification of secreted lipid mediators was achieved using liquid chromatography tandem mass spectrometry combined with the addition of a known quantity of deuterated versions of the lipid mediators to each sample as internal standards (Item Numbers: #10007737, #320110, #314010, #11182, #315210, #319030, #390030, #10006410, #10006199, #334230, and #10008040, Cayman Chemical). This is a well-established method to determine the relative activity of cyclooxygenase, acetyl-COX2 and lipoxygenase biosynthetic pathways. In brief, the ratios of the integrated areas of the chromatographic peaks corresponding to each analyte and the integrated areas of the peaks corresponding to each analyte's internal standard (with known absolute quantity) are used to determine the relative quantity of each analyte in a given sample. […] The chromatographic profile of the ion count for each m/z transition was monitored, and the area under the peaks (ion intensity vs elution time) was integrated using commercial software (MultiQuant, Sciex).

[2] = tested on: human Tenon's capsule fibroblasts (HTCFs); experiment: Collagen Contraction Assay I (delayed release fibroblast populated collagen lattice); format: cell-based
Method: The delayed release fibroblast populated collagen lattice model was used to assess inhibition of gel contraction [58] by ASA and gentamicin. […] Cell free collagen lattices were prepared identically, however to isolate the effects of HTCFs alone on collagen, constructs without HTCFs were cast as a negative control. The cell-collagen solution was pipetted gently to ensure homogenous distribution of HTCFs while avoiding the production of air bubbles, then 500 ul were pipetted into each well of a 24-well tray. Collagen constructs were allowed to polymerize at 37 C for 45 minutes before adding low serum culture media containing DMEM, 2% Fetal Bovine Serum (FBS), 1% penicillin/streptomycin (P/S).
Tension was allowed to build up within the tethered matrix at 37 C and 5% CO2 for 72 hours before a sterile spatula was used to detach each collagen construct from the edges of the culture well. Plates were then immediately scanned on a flat bed laser scanner and then once per hour for the first 12 hours, then daily for a total of 4 days. The surface area of each collagen construct was measured using ImageJ (NIH) and standardized against the baseline surface area measurement to express changes in area as a percentage of original surface area.
Vehicle control treatment solution comprised of DMEM with 2% FBS and 1% penicillin/streptomycin. The gentamicin treatment solution contained DMEM with 2% FBS, 1% penicillin/streptomycin and 1000 μg/ml gentamicin (w/vol) (Sigma-Aldrich, CAT. NO: G1397). The ASA treatment solution contained DMEM with 2% FBS, 1% penicillin/streptomycin and 2000 μg/ml ASA (w/vol) (Sigma-Aldrich, CAT. NO: A5376). The gentamicin-ASA combination treatment solution (Gent+ASA) contained DMEM with 2% FBS, 1% penicillin/streptomycin, 1000 μg/ml gentamicin (w/vol.) and 2000 μg/ml ASA (w/vo).
Culture media was removed from collagen constructs twice daily and replaced with one of the four treatment solutions for a duration of 15 minutes. […]

[3] = tested on: HTCFs; experiment: Collagen Contraction Assay III (TGFB1-induced); format: cell-based, human; conditions: ASA 1000 or 1500 μg/ml, with or without gentamicin; TGFB1 2 ng/ml added at 48 hrs
Method: A modified delayed release fibroblast populated collagen lattice model was used to assess inhibition of TGFB1-induced collagen contraction by ASA and gentamicin. HTCFs were seeded at a density of 2.5×10^5 cells/mL within an extracellular matrix (ECM) mixture containing 400 ul of rat tail-derived type I collagen (1.8 mg/ml), 80 ul of neutralizing solution (equal parts Waymouth's media (Gibco, CAT. NO: 11220035) and 0.275M NaOH) and 20 ul of HTCF conditioned media (concentrated to 25× to obtain a 1× final concentration within the 500 ul matrix solution). The cell-collagen solution was pipetted gently to ensure homogenous distribution of HTCFs while avoiding the production of air bubbles, then 500 ul were pipetted into each well of a 24-well tray. […]
Tension was allowed to build up within the tethered matrix at 37 C and 5% CO2 for 72 hours before a sterile spatula was used to detach each collagen construct from the edges of the culture well. Plates were then immediately scanned on a flat bed laser scanner for a baseline area reading and then measured again regularly for a total of 4 days. […] The surface area of each collagen construct was measured using ImageJ (NIH) and standardized against the baseline surface area measurement to express changes in area as a percentage of original surface area. […]

[4] = alone or with melittin 10 μg/ml, vs vehicle control

## CC(=O)Oc1ccccc1C(=O)O [ASA, acetylsalicylic acid]
[1]
  relative amount of COX2 products relative to inf. cytokines control: decrease the relative amount of COX2 products relative to inf. cytokines control
[1]; alone or with melittin 10 μg/ml, supernatant at 6, 12, 24 hrs
  relative secretion of precursor PUFAs (AA, DHA and EPA): no significant increase in relative secretion of precursor PUFAs
[1]; [4]
  relative secretion of acetylated-COX2 products: no significant increase in the relative secretion of acetylated-COX2 products
  secretion of COX2 products: decrease the secretion of COX2 products relative to vehicle control; however this effect was not statistically significant
[2]; ASA 2000 μg/ml alone
  contraction evident by the end of the four-day period: approximately 20%
[2]; gentamicin 1000 μg/ml and/or ASA 2000 μg/ml, 15 minutes twice daily, four day assay, vs vehicle control
  HTCF mediated collagen contraction: significantly inhibited contraction compared to vehicle control at all time points after the first hour of the experiment
[3]
  HTCF-mediated collagen contraction before and after TGFb1 stimulus: significantly impair HTCF-mediated contraction, at all concentrations assessed, both before and after stimulus with TGFb1
